The values that follow come from ChEMBL document CHEMBL5678818, “Discovery of potent SOS1 inhibitors that block RAS activation via disruption of the RAS-SOS1 interaction” (Proc Natl Acad Sci U S A, 2019).

Molecules are shown by their SMILES.

The target of assay [1] is Mitogen-activated protein kinase kinase kinase 1 (Homo sapiens) (UniProt Q13233). Briefly: Inhibition of MAP3K1 (unknown origin) assessed as residual activity at 100 nM by KINOMEscan analysis relative to control.
Assay [2] concerns the target T1, Muscle, skeletal receptor tyrosine-protein kinase (Homo sapiens) (UniProt O15146).
T1 sequence (whole entry): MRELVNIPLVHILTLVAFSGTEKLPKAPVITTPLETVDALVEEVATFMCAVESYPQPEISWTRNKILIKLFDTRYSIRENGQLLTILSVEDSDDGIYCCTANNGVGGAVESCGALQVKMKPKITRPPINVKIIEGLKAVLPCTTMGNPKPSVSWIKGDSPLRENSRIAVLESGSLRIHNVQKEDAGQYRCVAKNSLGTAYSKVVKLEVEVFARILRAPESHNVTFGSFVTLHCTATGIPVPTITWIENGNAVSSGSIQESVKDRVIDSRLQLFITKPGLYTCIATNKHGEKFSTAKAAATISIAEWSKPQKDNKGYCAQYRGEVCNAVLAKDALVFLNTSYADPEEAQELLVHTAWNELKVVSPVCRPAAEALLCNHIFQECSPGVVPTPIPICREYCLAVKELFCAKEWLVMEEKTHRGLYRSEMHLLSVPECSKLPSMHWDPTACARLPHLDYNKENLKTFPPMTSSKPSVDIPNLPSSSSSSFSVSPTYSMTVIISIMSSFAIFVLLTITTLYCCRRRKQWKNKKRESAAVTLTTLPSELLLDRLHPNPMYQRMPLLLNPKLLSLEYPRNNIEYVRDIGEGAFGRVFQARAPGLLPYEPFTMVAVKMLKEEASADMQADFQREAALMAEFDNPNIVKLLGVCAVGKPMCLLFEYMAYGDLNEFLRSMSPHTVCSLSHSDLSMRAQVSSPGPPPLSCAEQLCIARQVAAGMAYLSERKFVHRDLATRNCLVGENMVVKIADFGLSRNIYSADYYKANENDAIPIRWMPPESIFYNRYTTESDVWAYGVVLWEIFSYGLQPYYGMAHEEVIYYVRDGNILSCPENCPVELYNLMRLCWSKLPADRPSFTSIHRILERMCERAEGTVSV
Briefly: Inhibition of MUSK (unknown origin) assessed as residual activity at 100 nM by KINOMEscan analysis relative to control.

In assay [3] the target is T2, Serine/threonine-protein kinase Nek3 (Homo sapiens) (UniProt P51956).
T2 sequence (whole entry): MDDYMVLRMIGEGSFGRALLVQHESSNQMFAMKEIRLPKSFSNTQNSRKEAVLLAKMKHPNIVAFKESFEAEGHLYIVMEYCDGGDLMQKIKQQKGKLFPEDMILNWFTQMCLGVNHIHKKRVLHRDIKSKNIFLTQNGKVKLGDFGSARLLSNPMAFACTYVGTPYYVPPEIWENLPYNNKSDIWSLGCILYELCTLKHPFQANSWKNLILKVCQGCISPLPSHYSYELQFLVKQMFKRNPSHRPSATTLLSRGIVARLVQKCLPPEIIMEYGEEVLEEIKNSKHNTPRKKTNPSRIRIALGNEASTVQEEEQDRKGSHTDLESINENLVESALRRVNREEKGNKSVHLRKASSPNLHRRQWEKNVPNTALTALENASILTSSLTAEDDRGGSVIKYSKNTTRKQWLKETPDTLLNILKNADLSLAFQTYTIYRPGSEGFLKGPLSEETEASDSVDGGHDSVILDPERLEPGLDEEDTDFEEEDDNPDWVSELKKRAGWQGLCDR
Briefly: Inhibition of NEK3 (unknown origin) assessed as residual activity at 100 nM by KINOMEscan analysis relative to control.

Assay [4] addresses Protein kinase C theta type (Homo sapiens) (UniProt Q04759). Briefly: Inhibition of PRKCQ (unknown origin) assessed as residual activity at 100 nM by KINOMEscan analysis relative to control.
Assay [5] has as its target T3, Serine/threonine-protein kinase Sgk2 (Homo sapiens) (UniProt Q9HBY8).
T3 sequence (whole entry): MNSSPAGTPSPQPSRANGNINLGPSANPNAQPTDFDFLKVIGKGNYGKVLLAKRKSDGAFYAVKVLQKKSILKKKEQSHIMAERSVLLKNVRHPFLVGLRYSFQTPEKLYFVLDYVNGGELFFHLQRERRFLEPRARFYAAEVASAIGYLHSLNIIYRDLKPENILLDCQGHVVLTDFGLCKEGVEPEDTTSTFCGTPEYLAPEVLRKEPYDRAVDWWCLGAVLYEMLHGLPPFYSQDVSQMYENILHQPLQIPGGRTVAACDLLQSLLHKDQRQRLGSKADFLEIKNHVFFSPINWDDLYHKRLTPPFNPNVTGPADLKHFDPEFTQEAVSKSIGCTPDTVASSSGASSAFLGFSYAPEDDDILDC
Kind of assay: Inhibition of SGK2 (unknown origin) assessed as residual activity at 100 nM by KINOMEscan analysis relative to control.

Assay [6] has as its target T4, NUAK family SNF1-like kinase 2 (Homo sapiens) (UniProt Q9H093).
T4 sequence (whole entry): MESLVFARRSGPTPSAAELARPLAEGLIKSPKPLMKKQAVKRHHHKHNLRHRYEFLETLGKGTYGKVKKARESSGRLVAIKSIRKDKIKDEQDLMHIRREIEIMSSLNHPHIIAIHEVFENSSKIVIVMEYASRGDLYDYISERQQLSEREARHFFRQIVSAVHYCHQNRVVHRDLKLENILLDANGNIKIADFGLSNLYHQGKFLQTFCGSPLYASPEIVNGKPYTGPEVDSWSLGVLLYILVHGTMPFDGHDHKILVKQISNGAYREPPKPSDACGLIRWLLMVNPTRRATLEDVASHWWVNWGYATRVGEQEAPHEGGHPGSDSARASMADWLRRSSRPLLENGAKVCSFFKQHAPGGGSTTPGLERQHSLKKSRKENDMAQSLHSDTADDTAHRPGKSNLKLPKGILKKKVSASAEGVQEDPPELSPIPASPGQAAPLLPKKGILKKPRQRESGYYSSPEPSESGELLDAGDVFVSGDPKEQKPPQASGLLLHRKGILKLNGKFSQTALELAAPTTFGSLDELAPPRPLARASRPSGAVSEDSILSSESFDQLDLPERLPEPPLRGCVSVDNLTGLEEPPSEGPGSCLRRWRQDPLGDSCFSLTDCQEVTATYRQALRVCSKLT
Briefly: Inhibition of SNARK (unknown origin) assessed as residual activity at 100 nM by KINOMEscan analysis relative to control.

The target of assay [7] is Non-receptor tyrosine-protein kinase TYK2 (Homo sapiens) (UniProt P29597). Briefly: Inhibition of TYK2 JH1 catalytic domain (unknown origin) assessed as residual activity at 100 nM by KINOMEscan analysis relative to control.
Sequence of Non-receptor tyrosine-protein kinase TYK2 (Homo sapiens) (P29597 whole entry, the tested form may be a part): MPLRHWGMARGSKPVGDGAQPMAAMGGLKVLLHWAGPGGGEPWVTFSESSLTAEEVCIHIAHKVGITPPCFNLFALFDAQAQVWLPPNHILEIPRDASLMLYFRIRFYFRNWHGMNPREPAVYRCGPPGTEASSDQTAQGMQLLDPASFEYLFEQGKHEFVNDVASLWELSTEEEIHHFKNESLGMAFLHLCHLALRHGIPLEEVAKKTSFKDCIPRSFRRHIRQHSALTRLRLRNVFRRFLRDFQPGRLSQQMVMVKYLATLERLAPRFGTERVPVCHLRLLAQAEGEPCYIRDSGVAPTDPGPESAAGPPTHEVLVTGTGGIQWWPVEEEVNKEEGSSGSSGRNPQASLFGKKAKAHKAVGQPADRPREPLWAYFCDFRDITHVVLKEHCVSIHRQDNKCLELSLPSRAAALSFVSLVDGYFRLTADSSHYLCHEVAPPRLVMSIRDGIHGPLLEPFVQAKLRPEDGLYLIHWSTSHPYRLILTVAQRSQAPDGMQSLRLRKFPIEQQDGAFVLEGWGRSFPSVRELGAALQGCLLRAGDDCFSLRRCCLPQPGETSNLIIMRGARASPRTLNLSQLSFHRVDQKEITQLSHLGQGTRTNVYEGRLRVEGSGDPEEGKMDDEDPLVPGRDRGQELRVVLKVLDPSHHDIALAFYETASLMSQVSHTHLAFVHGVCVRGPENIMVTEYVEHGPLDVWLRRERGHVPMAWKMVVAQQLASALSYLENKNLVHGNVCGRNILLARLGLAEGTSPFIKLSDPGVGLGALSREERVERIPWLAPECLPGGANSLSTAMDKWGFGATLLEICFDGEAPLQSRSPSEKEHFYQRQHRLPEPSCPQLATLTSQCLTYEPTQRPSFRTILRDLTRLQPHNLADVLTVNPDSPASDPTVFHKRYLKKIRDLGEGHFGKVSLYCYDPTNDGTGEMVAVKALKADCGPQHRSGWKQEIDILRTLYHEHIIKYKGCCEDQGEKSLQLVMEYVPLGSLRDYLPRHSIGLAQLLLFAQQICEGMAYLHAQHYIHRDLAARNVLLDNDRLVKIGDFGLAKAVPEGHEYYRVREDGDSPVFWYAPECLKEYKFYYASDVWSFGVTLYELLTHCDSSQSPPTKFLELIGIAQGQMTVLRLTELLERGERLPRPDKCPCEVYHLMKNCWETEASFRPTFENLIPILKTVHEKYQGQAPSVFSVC

Sequence of Protein kinase C theta type (Homo sapiens) (Q04759 whole entry, looked up): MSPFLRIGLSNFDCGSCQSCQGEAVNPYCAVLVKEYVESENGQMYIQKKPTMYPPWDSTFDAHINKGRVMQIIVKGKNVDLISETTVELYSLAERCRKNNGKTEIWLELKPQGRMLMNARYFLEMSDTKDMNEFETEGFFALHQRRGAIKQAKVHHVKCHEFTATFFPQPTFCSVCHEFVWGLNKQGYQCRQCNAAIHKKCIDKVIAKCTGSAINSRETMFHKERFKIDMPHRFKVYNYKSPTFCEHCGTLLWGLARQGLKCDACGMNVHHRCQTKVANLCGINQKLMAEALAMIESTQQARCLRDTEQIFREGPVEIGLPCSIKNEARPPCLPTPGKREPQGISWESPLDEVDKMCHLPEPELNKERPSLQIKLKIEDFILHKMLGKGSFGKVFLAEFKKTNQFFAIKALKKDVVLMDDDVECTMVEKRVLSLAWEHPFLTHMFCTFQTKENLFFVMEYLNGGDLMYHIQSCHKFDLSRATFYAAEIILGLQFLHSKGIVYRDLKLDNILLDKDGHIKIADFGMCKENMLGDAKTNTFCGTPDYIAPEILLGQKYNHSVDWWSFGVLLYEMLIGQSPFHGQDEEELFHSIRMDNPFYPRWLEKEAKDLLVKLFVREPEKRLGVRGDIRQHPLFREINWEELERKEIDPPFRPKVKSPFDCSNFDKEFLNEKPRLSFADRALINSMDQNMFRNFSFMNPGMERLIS
Sequence of Mitogen-activated protein kinase kinase kinase 1 (Homo sapiens) (Q13233 whole entry): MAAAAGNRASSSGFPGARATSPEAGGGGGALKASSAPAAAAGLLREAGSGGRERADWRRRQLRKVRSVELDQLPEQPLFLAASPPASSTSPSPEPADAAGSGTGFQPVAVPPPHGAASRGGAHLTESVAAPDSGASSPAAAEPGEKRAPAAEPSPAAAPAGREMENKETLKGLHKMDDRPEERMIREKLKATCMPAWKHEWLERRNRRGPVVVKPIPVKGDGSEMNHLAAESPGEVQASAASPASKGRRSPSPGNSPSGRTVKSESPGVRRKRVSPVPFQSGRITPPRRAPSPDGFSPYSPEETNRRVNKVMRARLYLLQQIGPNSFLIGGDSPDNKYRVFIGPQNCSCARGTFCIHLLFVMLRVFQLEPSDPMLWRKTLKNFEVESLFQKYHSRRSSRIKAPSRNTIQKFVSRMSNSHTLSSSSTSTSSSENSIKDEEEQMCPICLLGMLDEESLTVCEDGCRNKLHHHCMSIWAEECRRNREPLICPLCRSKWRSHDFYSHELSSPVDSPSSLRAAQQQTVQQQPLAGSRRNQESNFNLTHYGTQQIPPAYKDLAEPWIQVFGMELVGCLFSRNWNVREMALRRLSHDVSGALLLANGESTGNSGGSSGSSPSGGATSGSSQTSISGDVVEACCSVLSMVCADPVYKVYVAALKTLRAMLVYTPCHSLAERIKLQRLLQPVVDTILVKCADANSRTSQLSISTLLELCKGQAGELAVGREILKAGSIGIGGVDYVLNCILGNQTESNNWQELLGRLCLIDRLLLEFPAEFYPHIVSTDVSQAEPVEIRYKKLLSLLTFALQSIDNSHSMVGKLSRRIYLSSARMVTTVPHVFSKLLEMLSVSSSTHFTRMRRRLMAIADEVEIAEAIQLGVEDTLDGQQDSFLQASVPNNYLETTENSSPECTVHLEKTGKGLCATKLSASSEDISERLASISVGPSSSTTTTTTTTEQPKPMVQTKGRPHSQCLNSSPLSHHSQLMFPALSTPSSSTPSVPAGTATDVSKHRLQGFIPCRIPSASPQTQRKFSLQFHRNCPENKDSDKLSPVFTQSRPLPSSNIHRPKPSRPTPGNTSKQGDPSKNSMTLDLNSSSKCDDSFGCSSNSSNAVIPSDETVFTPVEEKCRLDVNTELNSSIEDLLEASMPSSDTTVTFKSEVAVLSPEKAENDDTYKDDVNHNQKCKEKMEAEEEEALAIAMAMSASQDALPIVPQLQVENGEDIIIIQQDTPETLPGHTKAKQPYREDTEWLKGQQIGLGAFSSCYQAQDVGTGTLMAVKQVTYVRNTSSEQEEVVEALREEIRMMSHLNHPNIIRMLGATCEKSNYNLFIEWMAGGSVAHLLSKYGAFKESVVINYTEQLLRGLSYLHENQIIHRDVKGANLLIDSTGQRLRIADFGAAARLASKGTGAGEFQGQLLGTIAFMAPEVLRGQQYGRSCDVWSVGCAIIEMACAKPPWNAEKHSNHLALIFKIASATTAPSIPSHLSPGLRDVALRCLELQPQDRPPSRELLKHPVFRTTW

As for `COc1cc2ncnc(N[C@H](C)c3cccc4ccccc34)c2cc1OC`, the Activity in assay [1] was 100%; in assay [2] it was 98%; in assay [3], 97%; in assay [4], 100%; in assay [5], 97%; in assay [6], 92%. In assay [7], the Activity worked out at 94%.
